# Legend:
# Assay type in all cases: in vivo
# [1] = test system: Surinam grass (Brachiaria decumbens); test: Test B postemergence; conditions: 13 to 15 days
# How it was run: (§1)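 Pre: seeded pots sprayed, chemical in non-phytotoxic solvent/surfactant mix. Post: plants 2–18 cm, 1–4 leaf, same formulation. Greenhouse 13–15 d; visual % control vs untreated, 0–100 scale.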
# [2] = test system: crabgrass (Digitaria sanguinalis); test: Test B postemergence; conditions: 13 to 15 days
# How it was run: as §1
# [3] = test system: barnyardgrass (Echinochloa crus-galli); test: Test B postemergence; conditions: 13 to 15 days
# How it was run: as §1
# [4] = test system: velvetleaf (Abutilon theophrasti); test: Test B postemergence; conditions: 13 to 15 days
# How it was run: as §1
# corn (Zea mays) [5] = test: Test B postemergence; conditions: 13 to 15 days
# How it was run: as §1
# [6] = test system: morning glory (Ipomoea hederacea); test: Test B postemergence; conditions: 13 to 15 days
# How it was run: as §1
# [7] = test system: cocklebur (Xanthium strumarium); test: Test B postemergence; conditions: 13 to 15 days
# How it was run: as §1
# [8] = test system: wheat (Triticum aestivum); test: Test B postemergence; conditions: 13 to 15 days
# How it was run: as §1
# [9] = test system: giant foxtail (Setaria faberii); test: Test B postemergence; conditions: 13 to 15 days
# How it was run: as §1
# [10] = test system: lambsquarters (Chenopodium album); test: Test B postemergence; conditions: 13 to 15 days
# How it was run: as §1
# wild oat (Avena fatua) = test: Test B postemergence; conditions: 13 to 15 days
# How it was run: as §1
# [11] = test system: blackgrass (Alopecurus myosuroides); test: Test B postemergence; conditions: 13 to 15 days
# How it was run: as §1
# [12] = test system: Surinam grass (Brachiaria decumbens); test: Test B preemergence; conditions: scale 0 to 100, 0 no effect, 100 complete control
# How it was run: as §1
# [13] = test system: crabgrass (Digitaria sanguinalis); test: Test B preemergence; conditions: scale 0 to 100, 0 no effect, 100 complete control
# How it was run: as §1
# [14] = test system: barnyardgrass (Echinochloa crus-galli); test: Test B preemergence; conditions: scale 0 to 100, 0 no effect, 100 complete control
# How it was run: as §1
# [15] = test system: pigweed (Amaranthus retroflexus); test: Test B preemergence; conditions: scale 0 to 100, 0 no effect, 100 complete control
# How it was run: as §1
# [16] = test system: velvetleaf (Abutilon theophrasti); test: Test B preemergence; conditions: scale 0 to 100, 0 no effect, 100 complete control
# How it was run: as §1
# corn (Zea mays) [17] = test: Test B preemergence; conditions: scale 0 to 100, 0 no effect, 100 complete control
# How it was run: as §1
# [18] = test system: morning glory (Ipomoea hederacea); test: Test B preemergence; conditions: scale 0 to 100, 0 no effect, 100 complete control
# How it was run: as §1
# rice (Oryza saliva) = test: Test B preemergence; conditions: scale 0 to 100, 0 no effect, 100 complete control
# How it was run: as §1
# [19] = test system: cocklebur (Xanthium strumarium); test: Test B preemergence; conditions: scale 0 to 100, 0 no effect, 100 complete control
# How it was run: as §1
# [20] = test system: giant foxtail (Setaria faberii); test: Test B preemergence; conditions: scale 0 to 100, 0 no effect, 100 complete control
# How it was run: as §1
# [21] = test system: lambsquarters (Chenopodium album); test: Test B preemergence; conditions: scale 0 to 100, 0 no effect, 100 complete control
# How it was run: as §1
# [22] = Rate 125 g/ha, scale 0 (no effect) to 100 (complete control)
# [23] = Rate 500 g/ha, scale 0 to 100, 0 is no effect, 100 is complete control
smiles,measurement,setting,value
CCC(C)c1nn(C2CCN(c3cccc(C(F)(F)F)c3)C2=O)cc1Cl (stereo not drawn) [Compound 13],"Plant response rating, Surinam grass",[1]; [22],0
same,"Plant response rating, Surinam grass",[1]; [23],0
same,"Plant response rating, Crabgrass",[2]; [22],60
same,"Plant response rating, Crabgrass",[2]; [23],60
same,"Plant response rating, Barnyardgrass",[3]; [22],0
same,"Plant response rating, Barnyardgrass",[3]; [23],0
same,"Plant response rating, Velvetleaf",[4]; [22],0
same,"Plant response rating, Velvetleaf",[4]; [23],0
same,"Plant response rating, Corn",corn (Zea mays) [5]; [22],0
same,"Plant response rating, Corn",corn (Zea mays) [5]; [23],0
same,"Plant response rating, Morningglory",[6]; [22],0
same,"Plant response rating, Morningglory",[6]; [23],70
same,"Plant response rating, Cocklebur",[7]; [22],0
same,"Plant response rating, Cocklebur",[7]; [23],0
same,"Plant response rating, Wheat",[8]; [22],0
same,"Plant response rating, Wheat",[8]; [23],0
same,"Plant response rating, Foxtail, Giant",[9]; [22],0
same,"Plant response rating, Foxtail, Giant",[9]; [23],0
same,"Plant response rating, Lambsquarters",[10]; [22],0
same,"Plant response rating, Lambsquarters",[10]; [23],0
same,"Plant response rating, Wild Oat",wild oat (Avena fatua); [22],20
same,"Plant response rating, Wild Oat",wild oat (Avena fatua); [23],20
same,"Plant response rating, Blackgrass",[11]; [22],0
same,"Plant response rating, Blackgrass",[11]; [23],0
same,"Plant response rating, Surinam grass","[12]; Preemergence, Rate 500 g/ha",0
same,"Plant response rating, Surinam grass","[12]; preemergence, Rate 125 g/ha",0
same,"Plant response rating, Crabgrass","[13]; Preemergence, Rate 500 g/ha",0
same,"Plant response rating, Crabgrass","[13]; preemergence, Rate 125 g/ha",0
same,"Plant response rating, Barnyardgrass","[14]; Preemergence, Rate 500 g/ha",0
same,"Plant response rating, Barnyardgrass","[14]; preemergence, Rate 125 g/ha",0
same,"Plant response rating, Pigweed","[15]; Preemergence, Rate 500 g/ha",0
same,"Plant response rating, Pigweed","[15]; preemergence, Rate 125 g/ha",0
same,"Plant response rating, Velvetleaf","[16]; Preemergence, Rate 500 g/ha",0
same,"Plant response rating, Velvetleaf","[16]; preemergence, Rate 125 g/ha",0
same,"Plant response rating, Corn","corn (Zea mays) [17]; Preemergence, Rate 500 g/ha",0
same,"Plant response rating, Corn","corn (Zea mays) [17]; preemergence, Rate 125 g/ha",0
same,"Plant response rating, Morningglory","[18]; Preemergence, Rate 500 g/ha",0
same,"Plant response rating, Morningglory","[18]; preemergence, Rate 125 g/ha",0
same,"Plant response rating, Rice","rice (Oryza saliva); Preemergence, Rate 500 g/ha",0
same,"Plant response rating, Rice","rice (Oryza saliva); preemergence, Rate 125 g/ha",0
same,"Plant response rating, Cocklebur","[19]; Preemergence, Rate 500 g/ha",0
same,"Plant response rating, Cocklebur","[19]; preemergence, Rate 125 g/ha",0
same,"Plant response rating, Foxtail, Giant","[20]; Preemergence, Rate 500 g/ha",0
same,"Plant response rating, Foxtail, Giant","[20]; preemergence, Rate 125 g/ha",0
same,"Plant response rating, Lambsquarters","[21]; Preemergence, Rate 500 g/ha",0
same,"Plant response rating, Lambsquarters","[21]; preemergence, Rate 125 g/ha",0
CC(C)(C)c1nn(C2CCN(c3cccc(C(F)(F)F)c3)C2=O)cc1Cl (stereo not drawn) [Compound 14],"Plant response rating, Surinam grass",[1]; [22],0
same,"Plant response rating, Surinam grass",[1]; [23],0
same,"Plant response rating, Crabgrass",[2]; [22],50
same,"Plant response rating, Crabgrass",[2]; [23],70
same,"Plant response rating, Barnyardgrass",[3]; [22],0
same,"Plant response rating, Barnyardgrass",[3]; [23],0
same,"Plant response rating, Velvetleaf",[4]; [22],0
same,"Plant response rating, Velvetleaf",[4]; [23],0
same,"Plant response rating, Corn",corn (Zea mays) [5]; [22],0
same,"Plant response rating, Corn",corn (Zea mays) [5]; [23],0
same,"Plant response rating, Morningglory",[6]; [22],30
same,"Plant response rating, Morningglory",[6]; [23],80
same,"Plant response rating, Cocklebur",[7]; [22],0
same,"Plant response rating, Cocklebur",[7]; [23],0
same,"Plant response rating, Wheat",[8]; [22],0
same,"Plant response rating, Wheat",[8]; [23],0
same,"Plant response rating, Foxtail, Giant",[9]; [22],20
same,"Plant response rating, Foxtail, Giant",[9]; [23],30
same,"Plant response rating, Lambsquarters",[10]; [22],0
same,"Plant response rating, Lambsquarters",[10]; [23],0
same,"Plant response rating, Wild Oat",wild oat (Avena fatua); [22],0
same,"Plant response rating, Wild Oat",wild oat (Avena fatua); [23],0
same,"Plant response rating, Blackgrass",[11]; [22],0
same,"Plant response rating, Blackgrass",[11]; [23],0
same,"Plant response rating, Surinam grass","[12]; Preemergence, Rate 500 g/ha",0
same,"Plant response rating, Surinam grass","[12]; preemergence, Rate 125 g/ha",0
same,"Plant response rating, Crabgrass","[13]; Preemergence, Rate 500 g/ha",0
same,"Plant response rating, Crabgrass","[13]; preemergence, Rate 125 g/ha",0
same,"Plant response rating, Barnyardgrass","[14]; Preemergence, Rate 500 g/ha",0
same,"Plant response rating, Barnyardgrass","[14]; preemergence, Rate 125 g/ha",0
same,"Plant response rating, Pigweed","[15]; Preemergence, Rate 500 g/ha",0
same,"Plant response rating, Pigweed","[15]; preemergence, Rate 125 g/ha",0
same,"Plant response rating, Velvetleaf","[16]; Preemergence, Rate 500 g/ha",0
same,"Plant response rating, Velvetleaf","[16]; preemergence, Rate 125 g/ha",0
same,"Plant response rating, Corn","corn (Zea mays) [17]; Preemergence, Rate 500 g/ha",0
same,"Plant response rating, Corn","corn (Zea mays) [17]; preemergence, Rate 125 g/ha",0
same,"Plant response rating, Morningglory","[18]; Preemergence, Rate 500 g/ha",0
same,"Plant response rating, Morningglory","[18]; preemergence, Rate 125 g/ha",0
same,"Plant response rating, Rice","rice (Oryza saliva); Preemergence, Rate 500 g/ha",0
same,"Plant response rating, Rice","rice (Oryza saliva); preemergence, Rate 125 g/ha",0
same,"Plant response rating, Cocklebur","[19]; Preemergence, Rate 500 g/ha",0
same,"Plant response rating, Cocklebur","[19]; preemergence, Rate 125 g/ha",0
same,"Plant response rating, Foxtail, Giant","[20]; Preemergence, Rate 500 g/ha",0
same,"Plant response rating, Foxtail, Giant","[20]; preemergence, Rate 125 g/ha",0
same,"Plant response rating, Lambsquarters","[21]; Preemergence, Rate 500 g/ha",0
same,"Plant response rating, Lambsquarters","[21]; preemergence, Rate 125 g/ha",0
O=C1C(n2cccn2)CCN1c1cccc(C(F)(F)F)c1 (stereo not drawn) [Compound 15],"Plant response rating, Surinam grass",[1]; [22],0
same,"Plant response rating, Surinam grass",[1]; [23],0
same,"Plant response rating, Crabgrass",[2]; [22],20
same,"Plant response rating, Crabgrass",[2]; [23],50
same,"Plant response rating, Barnyardgrass",[3]; [22],0
same,"Plant response rating, Barnyardgrass",[3]; [23],0
same,"Plant response rating, Velvetleaf",[4]; [22],0
same,"Plant response rating, Velvetleaf",[4]; [23],0
same,"Plant response rating, Corn",corn (Zea mays) [5]; [22],0
same,"Plant response rating, Corn",corn (Zea mays) [5]; [23],0
same,"Plant response rating, Morningglory",[6]; [22],0
same,"Plant response rating, Morningglory",[6]; [23],0
same,"Plant response rating, Cocklebur",[7]; [22],0
same,"Plant response rating, Cocklebur",[7]; [23],0
same,"Plant response rating, Wheat",[8]; [22],0
same,"Plant response rating, Wheat",[8]; [23],0
same,"Plant response rating, Foxtail, Giant",[9]; [22],0
same,"Plant response rating, Foxtail, Giant",[9]; [23],30
same,"Plant response rating, Lambsquarters",[10]; [22],0
same,"Plant response rating, Lambsquarters",[10]; [23],0
same,"Plant response rating, Wild Oat",wild oat (Avena fatua); [22],0
same,"Plant response rating, Wild Oat",wild oat (Avena fatua); [23],50
same,"Plant response rating, Blackgrass",[11]; [22],0
same,"Plant response rating, Blackgrass",[11]; [23],30
same,"Plant response rating, Surinam grass","[12]; Preemergence, Rate 500 g/ha",20
same,"Plant response rating, Surinam grass","[12]; preemergence, Rate 125 g/ha",0
same,"Plant response rating, Crabgrass","[13]; Preemergence, Rate 500 g/ha",0
same,"Plant response rating, Crabgrass","[13]; preemergence, Rate 125 g/ha",0
same,"Plant response rating, Barnyardgrass","[14]; Preemergence, Rate 500 g/ha",0
same,"Plant response rating, Barnyardgrass","[14]; preemergence, Rate 125 g/ha",0
same,"Plant response rating, Pigweed","[15]; Preemergence, Rate 500 g/ha",0
same,"Plant response rating, Pigweed","[15]; preemergence, Rate 125 g/ha",0
same,"Plant response rating, Velvetleaf","[16]; Preemergence, Rate 500 g/ha",70
same,"Plant response rating, Velvetleaf","[16]; preemergence, Rate 125 g/ha",50
same,"Plant response rating, Corn","corn (Zea mays) [17]; Preemergence, Rate 500 g/ha",0
same,"Plant response rating, Corn","corn (Zea mays) [17]; preemergence, Rate 125 g/ha",0
same,"Plant response rating, Morningglory","[18]; Preemergence, Rate 500 g/ha",30
same,"Plant response rating, Morningglory","[18]; preemergence, Rate 125 g/ha",0
same,"Plant response rating, Rice","rice (Oryza saliva); Preemergence, Rate 500 g/ha",0
same,"Plant response rating, Rice","rice (Oryza saliva); preemergence, Rate 125 g/ha",0
same,"Plant response rating, Cocklebur","[19]; Preemergence, Rate 500 g/ha",0
same,"Plant response rating, Cocklebur","[19]; preemergence, Rate 125 g/ha",0
same,"Plant response rating, Foxtail, Giant","[20]; Preemergence, Rate 500 g/ha",0
same,"Plant response rating, Foxtail, Giant","[20]; preemergence, Rate 125 g/ha",0
same,"Plant response rating, Lambsquarters","[21]; Preemergence, Rate 500 g/ha",60
same,"Plant response rating, Lambsquarters","[21]; preemergence, Rate 125 g/ha",0
